Where two headings read alike, the source gives them in different places. Non-standard residues stand in square brackets, D forms with d. Residues, ends and D or L forms follow the SMILES beside them. *: point of attachment. Sta = CC(C)C[C@H](N)[C@@H](O)CC(=O)O; Isovaleryl = CC(C)CC(=O)*
Columns and labels:
[1] = test system: Lice (L) / Plutella (P) eggs; format: in vivo
Experimental: Log LD50 is obtained from the observed percentage ovicidal activity by conversion using a modified logit transformation. The observed percentage ovicidal activity values were transformed using the equation:
The additional 5% was used to allow a number to be calculated when 0% and 100% activity was observed. The BA is a crude correction to the log of the concentration at which the compounds were tested. Correlation between BA values and LD50 allows the calculation of Log LD50. […] A number of metal chelating agents with potential for inhibiting the remodelling events associated with thin membrane egg hatching in lice were analysed by comparing their percentage ovicidal activity in lice at different concentrations, their logit calculated pLD50, Pref pLD50, Activity class, clogP and molar refractivity were determined.

Plutella xylostella eggs = assay: Glass house ovicidal test, Plutella eggs on cabbage plants; format: in vivo; conditions: 10 eggs per plant
Text: A number of treatments and replicates were set up in the glass house using young cabbage plants that were at the 4-5 leaf stage. Plutella xylostella eggs were laid by gravid females on the leaves such that each plant contained 10 eggs. The plants were sprayed with a commercial ovicide or using the compounds 5,5′-dimethyl-2,2′-dipyridyl and 5,5′ diethyl-2,2′-dipyridyl in a formulation at the rate of 200 L/Ha using a track sprayer. Controls of water only or Placebo only were also included. The ovicidal efficacy was monitored over a number of days an the number of eggs hatching and caterpillar larvae emerging recorded (Table 22).

[2] = test system: proteases in louse egg shell washings (ESW); assay: Gelatine substrate SDS-PAGE of louse egg shell washings incubated with protease inhibitors; format: biochemical, Pediculus humanus humanus; conditions: gelatine SDS-PAGE strips; EDTA 10 mM, 1,10-phenanthroline 10 mM, PMSF 5 mM, E-64 10 μM, Pepstatin 5 μM; 3 hrs at 37° C.
Experimental: Within 12 hours of hatching 50 body lice eggs (Pediculus humanus humanus) were removed from the hair and placed in a 1 mL eppendorf tube. 20 μL of distilled water was added to the unhatched eggs and the preparation incubated for 30 minutes at 32° C. The 20 μL was recovered, freeze dried and stored at −70° C. This sample was referred to as sample 1. A number of other samples were also collected as described. Sample 2 was collected by removing the unhatched louse eggs from four hairs that were approximately 3 cm long, cutting the hair into 0.5 cm lengths, and placing them into a microfuge tube containing 20 μl of distilled water and incubating at 32° C. for 30 minutes. Sample 3 was collected as for sample 2, but the hair was placed in a tube containing 10 mL of 1% sodium hypochlorite for 1 minute followed by five 1 minute washes in 25 mL of distilled water to remove the sodium hypochlorite before being incubated in a microfuge tube containing 20 μl of distilled water and incubated as for Sample 2. Sample 4 was collected from unhatched eggs which were removed from the hair and washed with 1% sodium hypochlorite and incubated in 20 μl of distilled water in the same manner as the hair in Sample 3. Finally, Sample 5 was collected from eggs that were within 24 hrs of hatching which were washed with 1% sodium hypochlorite, then returned to the incubator at 32° C. until they hatched, the empty egg shells collected 0-2 hrs after egg-hatching, placed in a 1 mL microfuge tube containing 20 μl of distilled water and incubated as for Samples 1-4. For all samples 1-5 the 20 μl of fluid was recovered, freeze-dried and stored at −70° C. The washings recovered from these freshly hatched egg shells are referred to as egg-shell-washings (ESWs). In order to look for the presence of proteases present in these different samples, the freeze-dried samples were resuspended in 15 μL of non-reducing SDS sample buffer, centrifuged at 10,000 g for 2 minutes and the entire 15 μL loaded on to 10% gelatine substrate SDS-PAGE gels. Gels were run at 4° C. for 10 minutes at 10 mA followed by a further 25 minutes at 15 mA per gel. They were then incubated for 2×20 minutes in a 2.5% Triton-X 100 solution followed by a three hour incubation in 0.1M Tris/HCl containing 1 mM CaCl2 pH 8.0. Activity was detected as clear areas on the gel the result of protease activity degrading the gelatine within the gel.
Protease activity in the ESWs from louse eggs was also examined using two-dimensional gel electrophoresis. It was necessary to collect large numbers of freshly hatched egg shells. Following egglaying onto pieces of cloth, adult female lice were removed and the cloth with the eggs washed with 1% sodium hypochlorite as for collection of ESWs. The eggs were then returned to the incubator and permitted to hatch. Typically 100 to 500 hatched egg shells were collected (0-2 hours post hatching), placed in a microfuge tube containing 200 μl of distilled water, incubated and sample treated as described above. For analysis, ESWs were resuspended in rehydration buffer (8 M Urea, 2% 3-[(3-cholamidopropyl) dimethylammonio]-1-propanesulfonate 2% Immobilised pH gradient buffer 3-10 (Amersham Phamacia Biotech, Uppsala, Sweden)) and used to rehydrate 7 cm Immobiline Dry strips pH 3-10 (Amersham Bioscience) overnight. Strips were transferred to the Multiphor II (Pharmacia, Sweden) apparatus, electrophoresed in the first dimension at 200 V for 1 min, increasing to 3,500 V over the next 90 min followed by 65 min at 3,500 V, equilibrated (6 M urea, 30% glycerol, 50 mM Tris pH 8.8 and 2% SDS) and then run on a 10% SDS-PAGE gel containing 0.1% gelatin for the second dimension. The gel was then run and developed as previously described.
10% SDS-PAGE gelatine substrate gels were loaded with freeze dried egg shell washings from 100 lice eggs that had been resuspended in 50 μL of non-reducing sample buffer with samples run at 10 μL per lane. […]

[3] = test system: Plutella xylostella eggs (Waite strain); assay: Plutella xylostella egg hatch (egg dip)
Experimental: Several hundred Plutella xylostella eggs (Waite strain) were collected, that had been laid over a 24 hour period.
The egg masses were then placed in a humid box at 25° C. until egg hatch. Control eggs were exposed to absolute methanol as described above. At day 6 post laying the eggs were assessed from the different treatments and the percentage of egg hatch determined relative to the control as shown in Table 9.
Batches of Plutella eggs that were laid on either fine cloth or parafilm were dipped in a specific inhibitor solution for between 2-10 seconds, the excess solution was drained by blotting with dry tissue paper. The egg masses were then placed in a humid box at 25 degrees until egg hatch. Control eggs were exposed to absolute methanol as described above or not treated. At day 6 post laying the eggs were assessed from the different treatments and the percentage of egg hatch determined relative to the controls as shown in Tables 10 and 11.
The egg masses were then placed in a humid box at 25 degrees until egg hatch. Control eggs were exposed to absolute ethanol as described above. On day 6 post laying the eggs were assessed from the different treatments and the percentage of egg hatch determined relative to the control.

[4] = 10 mM (200 L/Ha), with wetting agent 0.3 ml/L
[5] = 20 mM (200 L/Ha), with wetting agent 0.3 ml/L

**Q.** Which “Activity class 0 = inactive 1 = low 2 = med 3 = high” value ([1]; 10 mM, Lice/Plutella: L P) does the source give for `c1ccc(-c2cc(N3CCOCC3)c3ccccc3n2)nc1` [4-Morpholin-4-yl-2-pyridin-2-yl-quinoline] here?
**A.** 0 (A pLD50 value less than 2 is considered inactive (Class 0))

**Q.** Which results are given for `Cc1ccc(-c2ccc(C)cn2)nc1` [5,5′dimethyl-2,2′-dipyridyl]?
**A.** # LARVAE EMERGED 0-24 h (Plutella xylostella eggs; [4]): 0; # LARVAE EMERGED 24-48 h (Plutella xylostella eggs; [4]): 0; # LARVAE EMERGED 0-24 h (Plutella xylostella eggs; [5]): 0; # LARVAE EMERGED 24-48 h (Plutella xylostella eggs; [5]): 0; # LARVAE EMERGED 48-72 h (Plutella xylostella eggs; 20 mM (200 L/Ha), with wetting agent 0.3 ml/L, 48-72 h): 0

**Q.** Which “Activity class 0 = inactive 1 = low 2 = med 3 = high” value ([1]; 10 mM, Lice/Plutella: ND P) does the source give for `CC(C)(C)c1ccc(C(=O)CC(=O)c2ccc(C(C)(C)C)cc2)cc1` [1,3-Bis-(4-tert-butyl-phenyl)-propane-1,3-dione] here?
**A.** 0 (A pLD50 value less than 2 is considered inactive (Class 0))

**Q.** Which “protease activity of egg shell washings compared to untreated controls” value [2] does the source give for `CC(C)C[C@H](NC(=O)[C@H]1O[C@@H]1C(=O)O)C(=O)NCCCCN=C(N)N` [E-64] here?
**A.** no apparent reduction in protease activity

**Q.** With `CC(C)CC(=O)N[C@H](C(=O)N[C@H](C(=O)N[C@@H](CC(C)C)[C@@H](O)CC(=O)N[C@@H](C)C(=O)N[C@@H](CC(C)C)[C@@H](O)CC(=O)O)C(C)C)C(C)C` [pepstatin] (Isovaleryl-VV[Sta]A[Sta]-OH) as the molecule, how does the “protease activity of egg shell washings compared to untreated controls” value [2] read?
**A.** no apparent reduction in protease activity

**Q.** `CC(=O)CC(=O)c1ccccc1` [Benzoylacetone] was tested. Which “Activity class 0 = inactive 1 = low 2 = med 3 = high” value ([1]; 1 mM, Lice/Plutella: ND P) did it give?
**A.** 0 (A pLD50 value less than 2 is considered inactive (Class 0))

**Q.** And the “Activity class 0 = inactive 1 = low 2 = med 3 = high” value ([1]; 10 mM, Lice/Plutella: ND P)?
**A.** 1 (a pLD50 value between 2 and 3 is considered weakly active (Class 1))

**Q.** Which “Activity class 0 = inactive 1 = low 2 = med 3 = high” value ([1]; 10 mM, Lice/Plutella: L P) does the source give for `O=C(CC(=O)C(F)(F)F)c1ccccc1` [4,4,4-Trifluoro-1-phenyl-butane-1,3-dione] here?
**A.** 0 (A pLD50 value less than 2 is considered inactive (Class 0))

**Q.** `COc1ccc(C(=O)CC(=O)c2ccc(OC)cc2)cc1` [1,3-Bis-(4-methoxy-phenyl)-propane-1,3-dione] was tested. Which “Activity class 0 = inactive 1 = low 2 = med 3 = high” value ([1]; 10 mM, Lice/Plutella: ND P) did it give?
**A.** 0 (A pLD50 value less than 2 is considered inactive (Class 0))

**Q.** How did the “protease activity of egg shell washings compared to untreated controls” value [2] turn out when `O=C(O)CN(CCN(CC(=O)O)CC(=O)O)CC(=O)O` [EDTA, ethylenediamine tetraacetic acid] was run?
**A.** reduction in protease activity

**Q.** `Cc1ccnc(-c2cc(C)ccn2)c1` [4,4′-dimethyl-2,2′-dipyridyl] was tested. Which “egg hatching of Plutella eggs (Tables 10 and 11)” value ([3]; 10 and 1 mM, cloth or parafilm) did it give?
**A.** significantly inhibit

**Q.** For `CC(=O)NO` [Acetohydroxamic acid], which “Activity class 0 = inactive 1 = low 2 = med 3 = high” value ([1]; 10 mM, Lice/Plutella: ND P) is on record?
**A.** 0 (A pLD50 value less than 2 is considered inactive (Class 0))

**Q.** Which “Activity class 0 = inactive 1 = low 2 = med 3 = high” value ([1]; 10 mM, Lice/Plutella: L P) does the source give for `c1ccc(Cc2ccccn2)cc1` [2-benzyl-pyridine] here?
**A.** 0 (A pLD50 value less than 2 is considered inactive (Class 0))

**Q.** With `c1ccc(-c2ccc3ccccc3n2)nc1` [2-(2-pyridinyl)quinoline] as the molecule, how does the “Activity class 0 = inactive 1 = low 2 = med 3 = high” value ([1]; 10 mM, Lice/Plutella: P) read?
**A.** 1 (a pLD50 value between 2 and 3 is considered weakly active (Class 1))

**Q.** And the “% Inhibition of egg hatch relative to control” value ([3]; 10 mM, Example 18, eggs on fine cloth dipped approximately 2 seconds, day 6 post laying)?
**A.** able to inhibit

**Q.** With `COc1ccc(C(=O)CC(=O)c2ccc(C(C)(C)C)cc2)cc1` [1-(4-tert-butylphenyl)-3-(4-methoxyphenyl)-propane-1,3-dione] as the molecule, how does the “Activity class 0 = inactive 1 = low 2 = med 3 = high” value ([1]; 10 mM, Lice/Plutella: L P) read?
**A.** 0 (A pLD50 value less than 2 is considered inactive (Class 0))

**Q.** How did the “protease activity of egg shell washings compared to untreated controls” value [2] turn out when `O=S(=O)(F)Cc1ccccc1` [PMSF] was run?
**A.** no apparent reduction in protease activity

**Q.** What does the source list for `CCc1ccc(-c2ccc(CC)cn2)nc1` [5,5′diethyl-2,2′-dipyridyl]?
**A.** # LARVAE EMERGED 0-24 h (Plutella xylostella eggs; 10 mM (200 L/Ha), No Wetting Agent): 0; # LARVAE EMERGED 0-24 h (Plutella xylostella eggs; [4]): 0

**Q.** With `c1cnc2ccc3ncccc3c2c1` [4,7-phenanthroline] as the molecule, how does the “Activity class 0 = inactive 1 = low 2 = med 3 = high” value ([1]; 10 mM, Lice/Plutella: L P) read?
**A.** 0 (A pLD50 value less than 2 is considered inactive (Class 0))

**Q.** How did the “Activity class 0 = inactive 1 = low 2 = med 3 = high” value ([1]; 10 mM, Lice/Plutella: ND P) turn out when `COC(=O)CN` [Glycine methyl ester] was run?
**A.** 0 (A pLD50 value less than 2 is considered inactive (Class 0))

**Q.** Which “Activity class 0 = inactive 1 = low 2 = med 3 = high” value ([1]; 10 mM, Lice/Plutella: L P) does the source give for `c1ccc2nc(-c3ccc4ccccc4n3)ccc2c1` [2,2′-biquinoline] here?
**A.** 0 (A pLD50 value less than 2 is considered inactive (Class 0))

**Q.** For `Cc1cc(C)cc(C(=O)CC(=O)c2cc(C)cc(C)c2)c1` [1,3-Bis-(3,5-dimethyl-phenyl)-propane-1,3-dione], which “Activity class 0 = inactive 1 = low 2 = med 3 = high” value ([1]; 10 mM, Lice/Plutella: ND P) is on record?
**A.** 0 (A pLD50 value less than 2 is considered inactive (Class 0))

**Q.** Which “Activity class 0 = inactive 1 = low 2 = med 3 = high” value ([1]; 10 mM, Lice/Plutella: ND P) does the source give for `CC(=O)C1CCCCC1=O` (stereo not shown) [2-Acetylcyclohexanone] here?
**A.** 0 (A pLD50 value less than 2 is considered inactive (Class 0))

**Q.** Which “Activity class 0 = inactive 1 = low 2 = med 3 = high” value ([1]; 10 mM, Lice/Plutella: ND P) does the source give for `O=C(CC(=O)c1cccnc1)c1cccnc1` [1,3-dipyridin-3-yl-propane-1,3-dione] here?
**A.** 0 (A pLD50 value less than 2 is considered inactive (Class 0))

**Q.** Which “Activity class 0 = inactive 1 = low 2 = med 3 = high” value ([1]; 10 mM, Lice/Plutella: ND P) does the source give for `N[C@@H]1CCCC[C@H]1O` (relative stereo) [Trans-2-aminocyclohexanol] here?
**A.** 0 (A pLD50 value less than 2 is considered inactive (Class 0))

**Q.** Which “Activity class 0 = inactive 1 = low 2 = med 3 = high” value ([1]; 10 mM, Lice/Plutella: P) does the source give for `O=C(CC(=O)c1ccccc1)c1ccccc1` [Dibenzoyl methane] here?
**A.** 1 (a pLD50 value between 2 and 3 is considered weakly active (Class 1))
